Tests used:
[1] = Stability of the compound in human plasma assessed as half life; assay type: ADME, cell-free
[2] = target: Induced myeloid leukemia cell differentiation protein Mcl-1 (Homo sapiens, UniProt Q07820); test: Irreversible inhibition of MCL-1 (unknown origin) measured after 8 hrs
[3] = Metabolic stability in human hepatocytes assessed as half life; assay type: ADME, cell-based, Hepatocyte
[4] = Metabolic stability in human liver microsomes assessed as half life; assay type: ADME, Microsome
[5] = target: Eukaryotic translation initiation factor 4E (Homo sapiens) (UniProt P06730); test: Inhibition of eIF4E (unknown origin) assessed as reaction rate Kinact/Ki ratio
Eukaryotic translation initiation factor 4E (Homo sapiens), sequence (P06730 whole entry): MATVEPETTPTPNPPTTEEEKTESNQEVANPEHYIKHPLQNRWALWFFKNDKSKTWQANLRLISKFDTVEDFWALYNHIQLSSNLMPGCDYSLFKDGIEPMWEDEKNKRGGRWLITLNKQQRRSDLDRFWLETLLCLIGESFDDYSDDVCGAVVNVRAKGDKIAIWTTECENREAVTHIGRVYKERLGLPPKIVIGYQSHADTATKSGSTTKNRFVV

[6] = GSH reactivity in PBS buffer at pH 7.5 assessed as half life at 500 uM by LC-MS analysis; assay type: ADME
[7] = Stability of the compound in pH 7.5 PBS assessed as hydrolysis by measuring half life at 500 uM by LC-MS analysis; assay type: physicochemical; details: PBS pH 7.5, pH 7.5
[8] = target: Eukaryotic translation initiation factor 4E (Homo sapiens) (UniProt P06730); test: Inhibition of eIF4E (unknown origin) assessed as inactivation rate constant (Kinact)
Pyruvate kinase PKLR = Pyruvate kinase PKLR (Homo sapiens, UniProt P30613); test: Allosteric activation at human liver pyruvate kinase
Pyruvate kinase PKLR, sequence (P30613 whole entry): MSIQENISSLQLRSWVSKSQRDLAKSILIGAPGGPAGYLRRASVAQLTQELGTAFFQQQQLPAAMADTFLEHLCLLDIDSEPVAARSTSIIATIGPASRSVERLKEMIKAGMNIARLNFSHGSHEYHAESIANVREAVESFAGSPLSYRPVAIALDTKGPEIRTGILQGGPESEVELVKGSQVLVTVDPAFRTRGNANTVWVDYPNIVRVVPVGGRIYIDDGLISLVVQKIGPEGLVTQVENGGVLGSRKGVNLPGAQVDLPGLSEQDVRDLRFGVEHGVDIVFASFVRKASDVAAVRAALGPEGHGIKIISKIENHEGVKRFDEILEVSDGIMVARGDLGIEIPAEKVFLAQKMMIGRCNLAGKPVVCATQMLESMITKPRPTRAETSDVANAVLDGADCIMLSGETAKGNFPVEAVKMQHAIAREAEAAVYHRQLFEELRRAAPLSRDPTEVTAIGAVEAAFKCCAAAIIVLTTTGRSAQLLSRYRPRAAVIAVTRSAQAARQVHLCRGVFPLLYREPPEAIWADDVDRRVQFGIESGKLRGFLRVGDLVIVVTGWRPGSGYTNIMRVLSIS

[9] = target: Replicase polyprotein 1ab (Severe acute respiratory syndrome coronavirus 2, UniProt P0DTD1); test: Inhibition of SARS-CoV-2 Main protease (Mpro) by FRET assay
[10] = target: Signal peptidase I (Escherichia coli K-12) (UniProt P00803); test: Inhibition of Escherichia coli type I signal peptidase LepB assessed as reaction rate Kinact/Ki ratio
Signal peptidase I (Escherichia coli K-12), sequence (P00803 whole entry): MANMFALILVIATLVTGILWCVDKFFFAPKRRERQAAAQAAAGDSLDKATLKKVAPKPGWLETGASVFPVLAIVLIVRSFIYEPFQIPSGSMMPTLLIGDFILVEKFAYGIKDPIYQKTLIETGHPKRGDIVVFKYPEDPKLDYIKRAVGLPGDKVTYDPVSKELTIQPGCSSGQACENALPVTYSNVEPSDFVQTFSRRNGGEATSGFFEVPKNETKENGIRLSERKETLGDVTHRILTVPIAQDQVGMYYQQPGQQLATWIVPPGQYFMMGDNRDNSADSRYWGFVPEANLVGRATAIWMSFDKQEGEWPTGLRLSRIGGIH

[11] = target: Signal peptidase I (Escherichia coli K-12) (UniProt P00803); test: Irreversible inhibition of Escherichia coli type I signal peptidase LepB assessed as inactivation rate constant (Kinact)
Signal peptidase I = Signal peptidase I (Escherichia coli K-12, UniProt P00803); test: Binding affinity to Escherichia coli type I signal peptidase LepB assessed as inhibition constant
Signal peptidase I, sequence (P00803 whole entry): as above

[12] = Inhibition of staphylococcus aureus Sortase A assessed as fluorescence polarization using reporter peptide W7-F incubated for 30 mins by competition assay
[13] = target: T1, Peptidyl-prolyl cis-trans isomerase E (Homo sapiens, UniProt Q9UNP9); test: Inhibition of CypE (unknown origin) assessed as apparent inhibition constant incubated for 24 hrs by Competition anisotropy binding assay; details: read-out: Ki(app)
T1 sequence (Q9UNP9 whole entry): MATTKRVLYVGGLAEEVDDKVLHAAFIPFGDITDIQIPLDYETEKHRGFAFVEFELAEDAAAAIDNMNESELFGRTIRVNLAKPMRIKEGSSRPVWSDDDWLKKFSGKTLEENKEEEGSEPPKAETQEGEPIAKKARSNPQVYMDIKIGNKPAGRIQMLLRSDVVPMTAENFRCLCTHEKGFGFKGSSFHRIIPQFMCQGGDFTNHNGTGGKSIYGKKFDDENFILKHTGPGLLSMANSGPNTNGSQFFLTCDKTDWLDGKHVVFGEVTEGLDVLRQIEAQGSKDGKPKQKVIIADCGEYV

[14] = target: T1, Peptidyl-prolyl cis-trans isomerase E; test: Inhibition of CypE (unknown origin) expressed in Escherichia coli BL21(DE3) by FLIPR based Chymotrypsin coupled prolyl-isomerase assay

Induced myeloid leukemia cell differentiation protein Mcl-1, sequence (Q07820 whole entry): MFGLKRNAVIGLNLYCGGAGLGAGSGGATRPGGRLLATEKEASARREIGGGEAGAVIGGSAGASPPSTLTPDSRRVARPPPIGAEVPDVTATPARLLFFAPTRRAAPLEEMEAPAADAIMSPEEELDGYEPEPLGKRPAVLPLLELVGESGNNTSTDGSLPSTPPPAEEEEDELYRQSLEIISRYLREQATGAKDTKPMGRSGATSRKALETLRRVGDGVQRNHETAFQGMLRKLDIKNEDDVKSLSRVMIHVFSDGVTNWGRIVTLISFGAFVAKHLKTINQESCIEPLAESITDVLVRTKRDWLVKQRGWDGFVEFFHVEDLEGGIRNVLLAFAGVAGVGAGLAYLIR

Question: For O=C1CCC(N2Cc3ccc(S(=O)(=O)n4cncn4)cc3C2=O)C(=O)N1 (stereo unspecified), which half-life [1] is on record?
Answer: Its half-life is under 1 min.

Question: For C#Cc1ccc(OCc2nn(C)c(C)c2-c2cccc3c(CCCOc4cccc5ccccc45)c(C(=O)O)[nH]c23)cc1C=O, which IC50 [2] is on record?
Answer: Its IC50 is 26.8 nM.

Question: With O=C1CCC(N2Cc3ccc(OS(=O)(=O)F)cc3C2=O)C(=O)N1 (stereo unspecified) as the molecule, how does the half-life [3] read?
Answer: Its half-life is over 217 min.

Question: And the half-life [4]?
Answer: The half-life was over 145 min.

Question: What does the source list for CNc1nc2ccc(N(Cc3ccnc(Cl)c3)S(=O)(=O)c3cccc(S(=O)(=O)F)c3)cc2c(=O)[nH]1?
Answer: Ratio [5]: 5.5 10^3/M/s; half-life at 500 µM [6]: 2.7 min; half-life at 500 µM [7]: 30 min; Kinact [8]: 2 10^-2/s

Question: For COC(=O)c1ccccc1SC1=NS(=O)(=O)c2ccccc21, which EC50 (Pyruvate kinase PKLR) is on record?
Answer: Its EC50 is 290 nM.

Question: Which IC50 [9] does the source give for O=C[C@H](CC1CCNC1=O)NC(=O)[C@H](Cc1cccc(F)c1)NC(=O)c1cc2ccccc2[nH]1 (stereo partly specified) here?
Answer: The IC50 was 40 nM.

Question: Which Ratio [10] does the source give for Cc1nc(-c2ccc(C(C)(C)C)cc2)ncc1C(=O)N[C@@H](CCN)C(=O)N(C)[C@@H]1C(=O)N[C@@H](C)C(=O)N[C@H](C(=O)NCC#N)Cc2ccc(OCCN)c(c2)-c2cc1ccc2OCCN here?
Answer: Its Ratio is 1.6 10^6/M/s.

Question: And the Kinact [11]?
Answer: The Kinact was 7 10^-4/s.

Question: What about the Ki (Signal peptidase I) of the same molecule?
Answer: Its Ki is 0.44 nM.

Question: For O=Cc1ccccc1NCc1ccccc1B(O)O, which IC50 [12] is on record?
Answer: The IC50 was 1300 nM.

Question: With NCCOCCNC(=O)[C@@H]1CCNC(=O)/C=C/C(=O)N2CCC[C@](Cc3ccccc3)(C2)C(=O)N[C@@H](Cc2ccc(-c3ccccc3)cc2)C(=O)NCc2ccccc2CC(=O)N1 as the molecule, how does the Ki [13] read?
Answer: Its Ki is 72 nM.

Question: What about the IC50 [14] of the same molecule?
Answer: Its IC50 is 13 nM.

From ChEMBL document CHEMBL5512664, “Emerging and Re-emerging Warheads for Targeted Covalent Inhibitors: An Update” (J Med Chem, 2024)
